According to PMC11359332, “Characterization of Neonicotinoid Metabolites by Cytochrome P450-Mediated Metabolism in Poultry” (Toxics, 2024):

Tests used:
[1] = system: chicken liver microsomes (CYP); assay: In vitro CYP metabolism of neonicotinoids, chicken liver microsomes, metabolites quantified by LC/MS/MS; assay type: in vitro ADME, chicken (Gallus domesticus)
Protocol: (§1) All experimental protocols and animal-handling procedures were performed following the guidelines for animal experiments and approved by the Animal Ethics Research Committee of the Faculty of Veterinary Medicine, […] University, Bangkok, Thailand (Approval number: […]-026). Liver samples of chickens (Gallus domesticus, n = 5), ducks (Anas platyrhynchos, n = 5), […] domesticus, n = 3), quails (Coturnix coturnix, n = 5), and rats (Rattus norvegicus, n = 3) were obtained from the previous study. The liver microsomal fractions used in this study were prepared by the method of Omura and Sato [28] with slight modifications. Briefly, liver sample was homogenized with 0.1 M potassium phosphate buffer (KPB, pH 7.4) and centrifuged at 9000× g at 4 °C for 20 min. The supernatant was collected and centrifuged twice at 105,000× g at 4 °C for 60 min. Microsomal pellets were homogenized with 0.1 M KPB and measured for protein concentrations using the BCA protein assay kit (Thermo Fisher Scientific, Rockford, IL, USA) before being frozen using liquid nitrogen, for storage at -80 °C until analysis. The assay of neonicotinoid metabolism using liver microsome was modified from that of a previous study. Since we had insufficient liver samples to produce the microsomes of geese and quails, the substrates of imidacloprid and clothianidin were not applied for those microsome reactions. However, microsomes of chicken, ducks, and rats were used for all substrate reactions. […] Then, the reaction was initiated by adding a mixture of G6PDH (2 IU/mL) and β-NADPH (0.5 mM), and continuously incubating for 30 min. Then, 0.1% formic acid in acetonitrile was added to stop the reaction. After that, the reaction sample was placed on ice for 15 min before centrifugation at 12,000 g for 10 min. The supernatant (100 μL) was collected and then spiked with neonicotinoid internal standard mixtures (50 μL), then evaporated using a centrifugal evaporator (CVE-200D with UT-2000, EYELA, Tokyo, Japan). The dried sample was re-dissolved with 20% methanol (v/v) and transferred into vials for chemical analysis. […] For all analyses, mobile phase A consisted of 0.1% formic acid + 10 mM ammonium acetate in distilled water and mobile phase B consisted of 0.1% formic acid + 10 mM ammonium acetate in 100% MeOH. The injection volume of 5 μL, the flow rate of 0.40 mL/min with gradient elution, and a column temperature of 45 °C were used for all experiments. The ion signals were acquired with multiple-reaction monitoring (MRM) in positive ionization mode. In the current study, the liver microsome was spiked with deuterium-labelled internal standards (ISs) of the target neonicotinoids before the extraction and purification processes. […] The calibration curves were created using 10-point calibration standards ranging from 0.05 to 20 ng/mL. […] The accuracy of the current analytical method was validated and determined using matrix-spiked neonicotinoid standards at two concentrations, 1 ng/mL and 10 ng/mL. The thirteen target compounds were detected with recovery rates ranging from 87 to 101% at 1 ng/mL, and 86 to 116% at 10 ng/mL. […] In the current study, all the assays were performed in duplicates and the negative controls (the reaction mixture without substrate) were prepared for each sample. […] Statistical analyses were conducted using the JMP […] software (SAS Institute, Carry, NC, USA). One-way ANOVA with post-hoc Tukey-Kramer multiple comparison test was used to compare the Vmax/Km ratio among species. All results were presented as the mean ± standard deviation (SD).

[2] = system: duck liver microsomes (CYP); assay: In vitro CYP metabolism of neonicotinoids, duck liver microsomes, metabolites quantified by LC/MS/MS; assay type: in vitro ADME, duck (Anas platyrhynchos)
Protocol: as §1

[3] = system: rat liver microsomes (CYP); assay: In vitro CYP metabolism of neonicotinoids, rat liver microsomes, metabolites quantified by LC/MS/MS; assay type: in vitro ADME
Protocol: as §1

[4] = system: liver microsomes from various species; assay: Metabolite screening by LC/Q-TOF in reaction mixtures using liver microsomes from various species; assay type: in vitro ADME, chicken, duck, goose, quail, rat
Protocol: The assay of neonicotinoid metabolism using liver microsome was modified from that of a previous study. Since we had insufficient liver samples to produce the microsomes of geese and quails, the substrates of imidacloprid and clothianidin were not applied for those microsome reactions. However, microsomes of chicken, ducks, and rats were used for all substrate reactions. […] Then, the reaction was initiated by adding a mixture of G6PDH (2 IU/mL) and β-NADPH (0.5 mM), and continuously incubating for 30 min. Then, 0.1% formic acid in acetonitrile was added to stop the reaction. After that, the reaction sample was placed on ice for 15 min before centrifugation at 12,000 g for 10 min. The supernatant (100 μL) was collected and then spiked with neonicotinoid internal standard mixtures (50 μL), then evaporated using a centrifugal evaporator (CVE-200D with UT-2000, EYELA, Tokyo, Japan). The dried sample was re-dissolved with 20% methanol (v/v) and transferred into vials for chemical analysis.
A liquid chromatograph quadrupole time-of-flight (6546 LC/Q-TOF; Agilent Technologies, Santa Clara, CA, USA) operated with a 1.8 μm Eclipse Plus C18 RRHD analytical column (2.1 × 150 mm; Agilent Technologies, CA, USA) at a flow rate of 0.25 mL/min was used in the screening test to search for chromatographic peaks with the exact molecular mass of the possible neonicotinoid metabolites (Table S3). The mobile phases were 10 mM ammonium formate in water (A) and 10 mM ammonium formate in MeOH (B). The gradient elution of mobile phase B was set as follows: 2% (0–1 min), 100% (1–30 min), continued 100% (30–39 min), and a 4 min post-run at 2%. An injection volume was 5 μL and the column temperature was maintained at 45 °C. The expected formulas of potential metabolites of the four neonicotinoids were derived from previous publications on neonicotinoid metabolites in environment samples [29, 30] and in animals.
Several neonicotinoid metabolites were formed in our current in vitro biotransformation assays (Table 1).

[5] = system: nicotinic acetylcholine receptors; conditions: cited from earlier work
[6] = system: goose liver microsomes (CYP); assay: In vitro CYP metabolism of neonicotinoids, goose liver microsomes, metabolites quantified by LC/MS/MS; assay type: in vitro ADME, goose (Anser domesticus)
Protocol: (§2) All experimental protocols and animal-handling procedures were performed following the guidelines for animal experiments and approved by the Animal Ethics Research Committee of the Faculty of Veterinary Medicine, […] University, Bangkok, Thailand (Approval number: […]-026). Liver samples of chickens (Gallus domesticus, n = 5), ducks (Anas platyrhynchos, n = 5), […] domesticus, n = 3), quails (Coturnix coturnix, n = 5), and rats (Rattus norvegicus, n = 3) were obtained from the previous study. The liver microsomal fractions used in this study were prepared by the method of Omura and Sato [28] with slight modifications. Briefly, liver sample was homogenized with 0.1 M potassium phosphate buffer (KPB, pH 7.4) and centrifuged at 9000× g at 4 °C for 20 min. The supernatant was collected and centrifuged twice at 105,000× g at 4 °C for 60 min. Microsomal pellets were homogenized with 0.1 M KPB and measured for protein concentrations using the BCA protein assay kit (Thermo Fisher Scientific, Rockford, IL, USA) before being frozen using liquid nitrogen, for storage at -80 °C until analysis. […] The accuracy of the current analytical method was validated and determined using matrix-spiked neonicotinoid standards at two concentrations, 1 ng/mL and 10 ng/mL. The thirteen target compounds were detected with recovery rates ranging from 87 to 101% at 1 ng/mL, and 86 to 116% at 10 ng/mL. […]

[7] = system: quail liver microsomes (CYP); assay: In vitro CYP metabolism of neonicotinoids, quail liver microsomes, metabolites quantified by LC/MS/MS; assay type: in vitro ADME, quail (Coturnix coturnix)
Protocol: as §2

fish leukocytes = system: fish leukocytes; design: method as in PMID 38594566; conditions: compared with parent substances; cited from earlier work
[8] = clothianidin to clothianidin-urea
[9] = clothianidin to dm-clothianidin
[10] = clothianidin to dn-clothianidin
[11] = imidacloprid to 4OH-imidacloprid
[12] = imidacloprid to 5OH-imidacloprid
[13] = imidacloprid to dn-imidacloprid
[14] = imidacloprid to imidacloprid-olefin

Structure (SMILES): CN/C(=N\[N+](=O)[O-])NCc1cnc(Cl)s1 [Clothianidin]
- Vmax [1, 8]: 0.008 ± 0.001 pmol/min/mg protein
- Vmax [1, 9]: 4.4 ± 1.2 pmol/min/mg protein
- Vmax [1, 10]: 0.1 ± 0.0 pmol/min/mg protein
- Vmax [2, 8]: 0.005 ± 0.001 pmol/min/mg protein
- Vmax [2, 9]: 2.9 ± 1.3 pmol/min/mg protein
- Vmax [2, 10]: 0.3 ± 0.1 pmol/min/mg protein
- Vmax [3, 8]: 0.012 ± 0.002 pmol/min/mg protein
- Vmax [3, 10]: 0.2 ± 0.0 pmol/min/mg protein
- Species in which metabolite clothianidin-urea was identified ([4]; substrate clothianidin 800 µM, goose and quail not analyzed): Chicken, Duck, Rat
- Affinity to nicotinic acetylcholine receptors [5]: high affinity to nicotinic acetylcholine receptors

Structure (SMILES): C/C(=N\C#N)N(C)Cc1ccc(Cl)nc1 [Acetamiprid]
- Vmax ([1]; acetamiprid to dm-acetamiprid): 1.2 ± 0.0 pmol/min/mg protein
- Vmax ([2]; acetamiprid to dm-acetamiprid): 0.4 ± 0.0 pmol/min/mg protein
- Vmax ([6]; acetamiprid to dm-acetamiprid): 1.3 ± 0.2 pmol/min/mg protein
- Vmax ([7]; acetamiprid to dm-acetamiprid): 0.3 ± 0.1 pmol/min/mg protein
- Vmax ([3]; acetamiprid to dm-acetamiprid): 0.1 ± 0.0 pmol/min/mg protein
- Species in which metabolite N-[(6-chloro-3-pyridyl) methyl]-N-methyl acetamidine was identified ([4]; substrate acetamiprid 800 µM): Duck, Goose, Quail, Rat
- Species in which metabolite N-desmethyl-acetamiprid was identified ([4]; substrate acetamiprid 800 µM): Chicken, Duck, Goose, Quail, Rat
- Species in which metabolite N-methyl(6-chloro-3-pyridyl) methylamine was identified ([4]; substrate acetamiprid 800 µM): Chicken, Duck, Goose, Quail, Rat

Structure (SMILES): NC(=O)N=C1SCCN1Cc1ccc(Cl)nc1 [thiacloprid-amide]
- Cytotoxicity potency on fish leukocytes (fish leukocytes): higher cytotoxicity potency on fish leukocytes than their parent substances

Structure (SMILES): O=[N+]([O-])NC1=NCCN1Cc1ccc(Cl)nc1 [Imidacloprid]
- Vmax [1, 11]: 0.5 ± 0.0 pmol/min/mg protein
- Vmax [1, 12]: 0.5 ± 0.0 pmol/min/mg protein
- Vmax [1, 13]: 1.0 ± 0.7 pmol/min/mg protein
- Vmax [1, 14]: 0.2 ± 0.0 pmol/min/mg protein
- Vmax [2, 11]: 0.1 ± 0.0 pmol/min/mg protein
- Vmax [2, 12]: 0.1 ± 0.0 pmol/min/mg protein
- Vmax [2, 13]: 0.2 ± 0.0 pmol/min/mg protein
- Vmax [2, 14]: 0.03 ± 0.0 pmol/min/mg protein
- Vmax [3, 11]: 0.1 ± 0.0 pmol/min/mg protein
- Vmax [3, 12]: 0.1 ± 0.0 pmol/min/mg protein
- Vmax [3, 13]: 0.1 ± 0.0 pmol/min/mg protein

Structure (SMILES): CN1COCN(Cc2cnc(Cl)s2)/C1=N\[N+](=O)[O-] [Thiamethoxam]
- Vmax ([1]; thiamethoxam to clothianidin): 1.2 ± 0.0 pmol/min/mg protein
- Vmax ([1]; thiamethoxam to dm-clothianidin): 0.01 ± 0.00 pmol/min/mg protein
- Vmax ([2]; thiamethoxam to clothianidin): 0.1 ± 0.0 pmol/min/mg protein
- Vmax ([6]; thiamethoxam to clothianidin): 0.2 ± 0.1 pmol/min/mg protein
- Vmax ([7]; thiamethoxam to clothianidin): 0.4 ± 0.1 pmol/min/mg protein
- Vmax ([3]; thiamethoxam to clothianidin): 0.1 ± 0.0 pmol/min/mg protein
- Species in which metabolite N-desmethyl-thiamethoxam was identified ([4]; substrate thiamethoxam 800 µM): Chicken, Duck, Goose, Quail, Rat
- Species in which metabolite clothianidin was identified ([4]; substrate thiamethoxam 800 µM): Chicken, Duck, Goose, Quail, Rat
- Species in which metabolite clothianidin-urea was identified ([4]; substrate thiamethoxam 800 µM): Chicken, Duck, Goose, Quail, Rat
- Species in which metabolite dm-clothianidin was identified ([4]; substrate thiamethoxam 800 µM): Chicken
- Species in which metabolite thiamethoxam-urea was identified ([4]; substrate thiamethoxam 800 µM): Chicken, Duck, Goose, Quail, Rat

Structure (SMILES): NC1=NCCN1Cc1ccc(Cl)nc1 [dn-imidacloprid, desnitro-imidacloprid]
- Affinity for nicotinic acetylcholine receptors ([5]; compared with imidacloprid): higher affinity for nicotinic acetylcholine receptors than imidacloprid
- Cytotoxicity potency on fish leukocytes (fish leukocytes): higher cytotoxicity potency on fish leukocytes than their parent substances
